Results from paper PMC8996072, “Ag120-Mediated Inhibition of ASCT2-Dependent Glutamine Transport has an Anti-Tumor Effect on Colorectal Cancer Cells” (Frontiers in Pharmacology, 2022).

Molecular target: T1, ASCT2 (Homo sapiens, UniProt Q15758)
T1 construct: gene SLC1A5
T1 sequence (Q15758 1-541): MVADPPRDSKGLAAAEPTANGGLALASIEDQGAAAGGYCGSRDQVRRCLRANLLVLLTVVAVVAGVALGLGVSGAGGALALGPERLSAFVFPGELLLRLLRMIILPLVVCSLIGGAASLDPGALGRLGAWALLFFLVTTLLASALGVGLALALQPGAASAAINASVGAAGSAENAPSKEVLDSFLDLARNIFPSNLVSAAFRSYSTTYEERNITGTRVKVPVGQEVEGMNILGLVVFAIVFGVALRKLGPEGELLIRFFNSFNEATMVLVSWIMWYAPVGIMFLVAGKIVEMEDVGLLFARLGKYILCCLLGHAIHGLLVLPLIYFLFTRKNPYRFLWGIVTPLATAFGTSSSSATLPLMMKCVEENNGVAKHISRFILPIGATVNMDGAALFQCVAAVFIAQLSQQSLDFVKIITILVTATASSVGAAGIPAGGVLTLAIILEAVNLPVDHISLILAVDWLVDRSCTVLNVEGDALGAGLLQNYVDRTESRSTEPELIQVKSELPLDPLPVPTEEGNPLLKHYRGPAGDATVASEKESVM
Assay: SPR (Biacore T200), purified human ASCT2
Format: binding

## N#Cc1ccnc(N2C(=O)CC[C@H]2C(=O)N(c2cncc(F)c2)[C@H](C(=O)NC2CC(F)(F)C2)c2ccccc2Cl)c1 [Ag120]
  Kd: 5.91 µM
